# Results taken from ChEMBL document CHEMBL5576049, “Synthesis and cytotoxicity of novel 6,8,9-trisubstituted purine analogs against liver cancer cells” (Bioorg Med Chem Lett, 2024).
# The source made the active and inactive calls. The calls are words filed in the database; no cut-off is given here.
# Experiments:
# Type in all cases: functional, cell-based
# Huh-7 = assay: Cytotoxicity against human Huh-7 cells assessed as cell growth inhibition incubated for 72 hrs by SRB assay; details: for IC50: Huh-7, 72 h
# MCF7 = assay: Cytotoxicity against human MCF7 cells assessed as cell growth inhibition incubated for 72 hrs by SRB assay; details: for IC50: MCF7, 72 h
# HCT-116 = assay: Cytotoxicity against human HCT-116 cells assessed as cell growth inhibition incubated for 72 hrs by SRB assay; details: for IC50: HCT-116, 72 h
# [1] = Cytotoxicity against human FOCUS cells assessed as cell growth inhibition incubated for 72 hrs by SRB assay
# Mahlavu = assay: Cytotoxicity against human Mahlavu cells assessed as cell growth inhibition incubated for 72 hrs by SRB assay
# SNU-398 = assay: Cytotoxicity against human SNU-398 cells assessed as cell growth inhibition incubated for 72 hrs by SRB assay; details: SNU-398, 72 h
# PLC = assay: Cytotoxicity against human PLC cells assessed as cell growth inhibition incubated for 72 hrs by SRB assay
# SNU-387 = assay: Cytotoxicity against human SNU-387 cells assessed as cell growth inhibition incubated for 72 hrs by SRB assay; details: SNU-387, 72 h
# Hep 3B2 = assay: Cytotoxicity against human Hep3B cells assessed as cell growth inhibition incubated for 72 hrs by SRB assay
# HepG2 = assay: Cytotoxicity against human HepG2 cells assessed as cell growth inhibition incubated for 72 hrs by SRB assay; details: HepG2, 72 h
# SNU-475 = assay: Cytotoxicity against human SNU-475 cells assessed as cell growth inhibition by SRB assay
# SNU-182 = assay: Cytotoxicity against human SNU-182 cells assessed as cell growth inhibition incubated for 72 hrs by SRB assay; details: SNU-182, 72 h
# SNU-449 = assay: Cytotoxicity against human SNU-449 cells assessed as cell growth inhibition incubated for 72 hrs by SRB assay; details: SNU-449, 72 h
# SNU-423 = assay: Cytotoxicity against human SNU-423 cells assessed as cell growth inhibition incubated for 72 hrs by SRB assay; details: SNU-423, 72 h
SMILES,IC50 (Huh-7),IC50 (MCF7),IC50 (HCT-116),Activity (HCT-116),also measured
COc1ccc(-c2nc3c(N4CCN(c5ccc(Cl)c(Cl)c5)CC4)ncnc3n2C2CCCC2)cc1,7.4 µM,30.6 µM,33.6 µM,,
Clc1ccc(-c2nc3c(N4CCN(c5ccc(Cl)c(Cl)c5)CC4)ncnc3n2C2CCCC2)cc1,58.7 µM,,,inactive,Activity (MCF7): inactive
Cc1ccc(-c2nc3c(N4CCN(c5ccc(Cl)c(Cl)c5)CC4)ncnc3n2C2CCCC2)cc1,,,,inactive,Activity (Huh-7): inactive; Activity (MCF7): inactive
Fc1ccc(-c2nc3c(N4CCN(c5ccc(Cl)c(Cl)c5)CC4)ncnc3n2C2CCCC2)cc1,30 µM,,50.6 µM,,Activity (MCF7): inactive
Fc1ccc(-c2nc3c(N4CCN(c5ccc(C(F)(F)F)cc5)CC4)ncnc3n2C2CCCC2)cc1,11.4 µM,32.4 µM,13.5 µM,,
COc1ccc(-c2nc3c(N4CCN(c5ccccc5)CC4)ncnc3n2C2CCCC2)cc1,57.1 µM,,42.3 µM,,Activity (MCF7): inactive
Nc1nc(F)nc2c1ncn2[C@@H]1O[C@H](CO)[C@@H](O)[C@@H]1O [FLUDARABINE],28.4 µM,,,,
Nc1nc(Cl)nc2c1ncn2[C@H]1C[C@H](O)[C@@H](CO)O1 [CLADRIBINE],0.9 µM,2.4 µM,< 0.1 µM,,IC50 [1]: < 0.1 µM; IC50 (Mahlavu): < 0.1 µM; IC50 (SNU-398): < 0.1 µM
O=c1[nH]cc(F)c(=O)[nH]1 [FLUOROURACIL],,,4.1 µM,,
Clc1ccc(N2CCN(c3ncnc4c3nc(-c3ccc(Br)cc3)n4C3CCCC3)CC2)cc1,,51.6 µM,,inactive,Activity (Huh-7): inactive
FC(F)(F)c1ccc(N2CCN(c3ncnc4c3nc(-c3ccc(Cl)cc3)n4C3CCCC3)CC2)cc1,19.4 µM,30.3 µM,,inactive,
Fc1ccc(-c2nc3c(N4CCN(c5ccccc5)CC4)ncnc3n2C2CCCC2)cc1,11.4 µM,68.2 µM,13.7 µM,,
Cc1ccc(N2CCN(c3ncnc4c3nc(-c3ccc(Br)cc3)n4C3CCCC3)CC2)cc1,28.4 µM,24.8 µM,52.3 µM,,
Clc1ccc(N2CCN(c3ncnc4c3nc(-c3ccc(Br)cc3)n4C3CCCC3)CC2)cc1Cl,,60.7 µM,,inactive,Activity (Huh-7): inactive
FC(F)(F)c1ccc(-c2nc3c(N4CCN(c5ccc(Cl)cc5)CC4)ncnc3n2C2CCCC2)cc1,61.4 µM,57.9 µM,,inactive,
Brc1ccc(-c2nc3c(N4CCN(c5ccccc5)CC4)ncnc3n2C2CCCC2)cc1,11.1 µM,15 µM,28.8 µM,,
Cc1ccc(-c2nc3c(N4CCN(c5ccc(Cl)cc5)CC4)ncnc3n2C2CCCC2)cc1,61.8 µM,,,inactive,Activity (MCF7): inactive

SMILES,IC50 (Huh-7),IC50 (MCF7),IC50 (HCT-116),Activity (HCT-116),also measured
Cc1ccc(N2CCN(c3ncnc4c3nc(-c3ccc(F)cc3)n4C3CCCC3)CC2)cc1,20.8 µM,,26.1 µM,,Activity (MCF7): inactive
Cc1ccc(-c2nc3c(N4CCN(c5ccc(C(F)(F)F)cc5)CC4)ncnc3n2C2CCCC2)cc1,13.1 µM,26.2 µM,34.3 µM,,
Fc1ccc(-c2nc3c(N4CCN(c5ccc(Cl)cc5)CC4)ncnc3n2C2CCCC2)cc1,20.2 µM,,51.4 µM,,Activity (MCF7): inactive
COc1ccc(-c2nc3c(N4CCN(c5ccc(Cl)cc5)CC4)ncnc3n2C2CCCC2)cc1,5.5 µM,69.8 µM,30.9 µM,,
FC(F)(F)c1ccc(-c2nc3c(N4CCN(c5ccc(C(F)(F)F)cc5)CC4)ncnc3n2C2CCCC2)cc1,9.3 µM,6.1 µM,10.8 µM,,IC50 (PLC): 99.1 µM; IC50 (SNU-387): 98.7 µM; IC50 (Hep 3B2): 10.3 µM; IC50 (HepG2): 6.6 µM; IC50 (SNU-475): 17 µM; IC50 [1]: 4.5 µM; IC50 (Mahlavu): 19.8 µM; IC50 (SNU-182): 16.4 µM; IC50 (SNU-449): 60.6 µM; IC50 (SNU-398): 19 µM; IC50 (SNU-423): 24.9 µM
Cc1ccc(-c2nc3c(N4CCN(c5ccc(C)cc5)CC4)ncnc3n2C2CCCC2)cc1,17.4 µM,47.5 µM,33.4 µM,,
COc1ccc(-c2nc3c(N4CCN(c5ccc(C)cc5)CC4)ncnc3n2C2CCCC2)cc1,,58.4 µM,,inactive,Activity (Huh-7): inactive
Cc1ccc(N2CCN(c3ncnc4c3nc(-c3ccc(Cl)cc3)n4C3CCCC3)CC2)cc1,15.7 µM,21.6 µM,6.5 µM,,
COc1ccc(-c2nc3c(N4CCN(c5ccc(C(F)(F)F)cc5)CC4)ncnc3n2C2CCCC2)cc1,9.8 µM,,,inactive,Activity (MCF7): inactive
FC(F)(F)c1ccc(N2CCN(c3ncnc4c3nc(-c3ccc(Br)cc3)n4C3CCCC3)CC2)cc1,58.1 µM,17.4 µM,58.5 µM,,
Clc1ccc(-c2nc3c(N4CCN(c5ccc(Cl)cc5)CC4)ncnc3n2C2CCCC2)cc1,39 µM,35.8 µM,64.9 µM,,
Clc1ccc(-c2nc3c(N4CCN(c5ccccc5)CC4)ncnc3n2C2CCCC2)cc1,23.2 µM,19.8 µM,5.8 µM,,
FC(F)(F)c1ccc(-c2nc3c(N4CCN(c5ccccc5)CC4)ncnc3n2C2CCCC2)cc1,7.6 µM,25.9 µM,25.3 µM,,
Cc1ccc(-c2nc3c(N4CCN(c5ccccc5)CC4)ncnc3n2C2CCCC2)cc1,12.9 µM,21.4 µM,18.8 µM,,
FC(F)(F)c1ccc(-c2nc3c(N4CCN(c5ccc(Cl)c(Cl)c5)CC4)ncnc3n2C2CCCC2)cc1,35.1 µM,7.2 µM,,inactive,
Cc1ccc(N2CCN(c3ncnc4c3nc(-c3ccc(C(F)(F)F)cc3)n4C3CCCC3)CC2)cc1,16.1 µM,30.1 µM,46.2 µM,,
